Read-outs that look alike come from different tables or passages of the source.
Columns and labels:
[1] = test system: conscious Sprague Dawley rats; format: in vivo, rat; for Behavioral changes: key: 0 indicates a lack of response; (↓) indicates a very weak decrease; ↓ indicates a weak decrease; ↑ indicates a weak increase; ↑↑ indicates a strong increase; for Food intake: key: 0 indicates a lack of response; (↓) indicates a very weak decrease; ↓ indicates a weak decrease; ↑ indicates a weak increase; ↑↑ indicates a strong increase; for UNaV: key: 0 indicates a lack of response; (↓) indicates a very weak decrease; ↓ indicates a weak decrease; ↑ indicates a weak increase; ↑↑ indicates a strong increase
Method: In the conscious rat model, the animal is chronically instrumented with catheters in the urinary bladder, the femoral artery, and the femoral vein. The animal receives a continuous i.v. infusion with isotonic saline, 50 μl/min. Urine is collected in vials in consequtive urine collection periods of 10 min each. After two control periods, the test compound is administered and fractionated urine collections (10 min periods) are continued for at least two hours. Urinary concentrations of sodium and potassium are determined by flame photometry (Instrumentation Laboratory 943) using caesium as internal standard.
The diuretic effect of the peptide conjugates of the invention has been tested in conscious rats, where Compound 1 elicits a powerful and sustained diuretic response. Cardiovascular and renal responses produced by i.v. infusion of nociceptin (Phoenix Pharmaceuticals) and Compound 1 have been studied in conscious Sprague Dawley rats. The results are shown in FIGS. 2 to 8 wherein HR is heart rate, MAP is mean arterial pressure, V is urine flow rate, UNaV is urinary excretion rate of sodium, RSNA is renal sympathetic nerve activity expressed as % of the control level, Cosm is the osmolar clearance, and CH2O is free water clearance.
Furthermore, the effects of i.v. bolus administration of nociceptin (30 and 100 nmol/kg, Phoenix Pharmaceuticals) and nociceptin-NH2 (30 nmol/kg) on heart rate, arterial pressure and RSNA were studied in groups of 6 conscious Sprague-Dawley rats.
[…] After stabilization of urine flow rate and urinary sodium excretion, urine was collected during a 20-min control period. After this, the i.v. bolus injection was given or the i.v. infusate was switched to a solution of isotonic saline containing Compound 1 (i.v. infusion experiments). From the time of drug administration, experimental urine samples (10-min consecutive periods) were taken for 80 min.
One hour prior to the start of each experiment a food pellet (standard rodent chow) was placed within access to the rat though a hole in the rat holder. The number and time of feeding responses (i.e., times in which the rat began to eat the food pellet) was recorded before, and after drug administration. If a positive feeding response was observed, the pellet was removed from the restrainer to prevent feeding-induced alterations in heart rate and/or mean arterial pressure. At 10-min intervals, the food pellet was presented to the rat to determine the duration of the feeding response.

[2] = test system: chronically instrumented rats; assay: Twelve-hour i.v. infusion with servo-controlled volume replacement (acute tachyphylaxis); format: in vivo, rat
Method: To evaluate whether acute tachyphylaxis develops during i.v. treatment with Compound 1, an additional series of experiments were performed. Chronically instrumented rats were infused with vehicle (150 mM glucose) or Compound 1 (1 nmol/kg/min) for twelve hours while water balance was maintained using a computer-driven, servo-controlled i.v. volume replacement system^[2]. Acute tachyphylaxis has been observed during repeated i.v. dosing of the vasopressin antagonist SKF 101926 in conscious dogs^[12] and tolerance during chronic treatment has been reported for the selective V2-receptor antagonist OPC-31260 ^[13].

[3] = In vitro stability in heparinised human plasma; format: in vitro ADME
Method: In addition, the degradation of Compound 1 of the invention has been studied in heparinised human plama.
The stability of peptides is analysed in human plasma. The peptides are incubated at 37° C. in plasma and samples taken at approx. 8 regular intervals between t=0 and t=390 min for Compound 1 and nociceptin-NH2, and at 9 intervals between t=0 and t=32 min for Compound CE1 are analysed by HPLC. […] This is done by subsequent injections of the drug, plasma, and a co-injection with the drug and the plasma, followed by optimisation of the LC method parameters until a satisfactory separation is obtained. Three parallel experiments are performed for each plasma type. 100 μl of peptide is mixed with 900 μl plasma at t=0 and incubated at 37° C. (drug-plasma mixture conc. 0.1 mg/ml). Samples of 100 μl of the drug-plasma mixture are removed at appropriate intervals and the degradation stopped by precipitation of the sample with 10 μl MeCN:TFA 50:50 v/v. A control plasma sample without the drug treated in the same manner is also taken. The plasma samples are centrifuged for 15 min. at 12,000 rpm (Eppendorf centrifuge) at ambient temperature. The resulting supernatant solution is transferred to 300 μl HP autosamler vials and analyzed by HPLC. HPLC analysis are performed as follows:
Ac-RYYRWK-NH2 (SEQ ID NO: 1) and Compound 1
The samples are analysed in the following order: blank, the peptide at 0.1 mg/mL, the plasma without the peptide, the three parallel samples for t=0, the three parallel samples for t=5 min. the three parallel samples for t=60 min. etc. And finally the three parallel samples for t=0 are repeated to make sure that there have been no degradation or other failure during the analyses. The sample concentrations (peak height in mAU) are plotted vs. time and fitted to a function describing a mono exponential decay (Excel). The half-lives of the peptides in plasma are presented in Table 7 as mean (n=3)±standard deviation.

[4] = I.v. bolus injection 30 nmol/kg
[5] = I.v. infusion 0.1 nmol/kg/min (n = 6)
[6] = I.v. infusion 1.0 nmol/kg/min (n = 6)
[7] = I.v. infusion 10 nmol/kg/min (n = 6)
[8] = i.v. infusion 1 and 0.1 nmol/kg/min, FIG. 3

Ac-RYYRWKKKKKKK-NH2 [Compound 1, Ac-RYYRWKKKKKKK-NH2]
Δ Blood Pressure (%) ([1]; I.v. bolus 10 nmol/kg (n = 6)): −4 ± 1% | Δ K excretion (%) ([1]; I.v. bolus 10 nmol/kg (n = 6)): −35 ± 4% | Δ Na excretion (%) ([1]; I.v. bolus 10 nmol/kg (n = 6)): −44 ± 3% | Δ Urine Flow (%) ([1]; I.v. bolus 10 nmol/kg (n = 6)): +83 ± 42% | Δ Blood Pressure (%) ([1]; I.v. bolus 30 nmol/kg (n = 4)): −8 ± 2% | Δ K excretion (%) ([1]; I.v. bolus 30 nmol/kg (n = 4)): −20 ± 7% | Δ Na excretion (%) ([1]; I.v. bolus 30 nmol/kg (n = 4)): −51 ± 7% | Δ Urine Flow (%) ([1]; I.v. bolus 30 nmol/kg (n = 4)): +207 ± 11% | Δ Blood Pressure (%) ([1]; I.v. bolus 100 nmol/kg (n = 6)): −12 ± 2% | Δ K excretion (%) ([1]; I.v. bolus 100 nmol/kg (n = 6)): −52 ± 5% | Δ Na excretion (%) ([1]; I.v. bolus 100 nmol/kg (n = 6)): −70 ± 2% | Δ Urine Flow (%) ([1]; I.v. bolus 100 nmol/kg (n = 6)): +249 ± 60% | Δ Blood Pressure (%) ([1]; I.v. bolus 300 nmol/kg (n = 4)): −15 ± 3% | Δ K excretion (%) ([1]; I.v. bolus 300 nmol/kg (n = 4)): −79 ± 6% | Δ Na excretion (%) ([1]; I.v. bolus 300 nmol/kg (n = 4)): −85 ± 6% | Δ Urine Flow (%) ([1]; I.v. bolus 300 nmol/kg (n = 4)): +127 ± 47% | Behavioral changes [1, 4]: 0 | Food intake [1, 4]: 0 | HR [1, 4]: 0 | MAP [1, 4]: 0 | Behavioral changes ([1]; I.v. infusion 0.1 nmol/kg/min): 0 | Food intake ([1]; I.v. infusion 0.1 nmol/kg/min): 0 | HR ([1]; I.v. infusion 0.1 nmol/kg/min): 0 | UNaV ([1]; I.v. infusion 0.1 nmol/kg/min): 0 | Δ Blood Pressure (%) [1, 5]: −5 ± 4% | Δ K excretion (%) [1, 5]: −16 ± 6% | Δ Na excretion (%) [1, 5]: −5 ± 3% | Δ Urine Flow (%) [1, 5]: +99 ± 21% | Behavioral changes ([1]; I.v. infusion 1.0 nmol/kg/min): 0 | Food intake ([1]; I.v. infusion 1.0 nmol/kg/min): 0 | HR ([1]; I.v. infusion 1.0 nmol/kg/min): 0 | Δ Blood Pressure (%) [1, 6]: −10 ± 2% | Δ K excretion (%) [1, 6]: −51 ± 9% | Δ Na excretion (%) [1, 6]: −64 ± 7% | Δ Urine Flow (%) [1, 6]: 210 ± 51% | Δ Blood Pressure (%) [1, 7]: −15 ± 3% | Δ K excretion (%) [1, 7]: −68 ± 15% | Δ Na excretion (%) [1, 7]: −79 ± 6% | Δ Urine Flow (%) [1, 7]: 160 ± 68% | bradycardia and hypotension to an i.v. bolus injection of nociceptin ([1]; after 120 min of i.v. infusion 1 nmol/kg/min, n=6): completely blocked | water diuretic response ([1]; continuous i.v. infusion 1 and 10 nmol/kg/min): selective water diuretic response | heart rate, arterial pressure and RSNA ([1]; i.v. bolus 30 nmol/kg): did not produce any changes in heart rate, blood pressure or RSNA | stimulation of appetite or behavioral changes ([1]; i.v. bolus 30 nmol/kg): do not show any signs of stimulation of appetite or behavioral changes | diuretic (V) and antinatriuretic (UNaV) response ([1]; i.v. bolus 30 nmol/kg, data not shown): marked diuretic (V) and antinatriuretic (UNaV) response | appetite, sedation, behavioral changes ([1]; i.v. infusion 1 and 0.1 nmol/kg/min): no signs of increased appetite, sedation, or behavioral changes | HR response [1, 8]: little effect on HR | MAP response [1, 8]: slight, but significant reduction in MAP | diuretic (V) and antinatriuretic (UNaV) responses [1, 8]: significant diuretic (V μl/min) and antinatriuretic responses | fold more potent than nociceptin in producing similar magnitude diuretic and antinatriuretic responses ([1]; i.v. infusion, FIGS. 5 and 6): approximately 10 fold | duration of the diuretic effect ([1]; i.v. infusion, compared with nociceptin): tended to persist for a greater duration than that of i.v. nociceptin infusion | tubular water reabsorption and haemodynamics ([2]; i.v. infusion 1 nmol/kg/min): inhibited tubular water reabsorption without concomitant changes in arterial blood pressure, heart rate, renal blood flow, glomerular filtration rate or proximal tubular reabsorption | duration of aquaretic response ([2]; i.v. infusion 1 nmol/kg/min for twelve hours): sustained aquaretic response lasting the entire 12-hour infusion period | acute tachyphylaxis ([2]; i.v. infusion 1 nmol/kg/min, 12 hours): no acute tachyphylaxis develops within the first 12 hours of treatment | magnitude of aquaretic response versus OPC-31260 ([2]; i.v. infusion 1 nmol/kg/min, FIG. 9): aquaretic response of similar magnitude to the response seen with maximal doses of the selective vasopressin type-2 receptor antagonist OPC-31260 | half-life at 0.1 mg/ml ([3]; 37° C., mean (n=3) +/− deviation, read-out: T1/2 in min (degradation in human heparinised plasma)): 16.2 h | half-life at 0.1 mg/ml ([3]; read-out: half life in plasma): > 16 h

— patent US7550425B2, “Diuretic peptide conjugates” (Zealand Pharma A/S, priority 2000, dated 2009)
